Measurements published in patent US5464834A, “N-substituted N'-heterobicyclic piperazines having pharmaceutical activity” (Adir et Compagnie, priority 1992, dated 1995).

Tests used:
5HT1A receptor = assay: Overall in vivo agonist/antagonist behaviour at 5HT1A receptors; set-up: species or system rat (male Wistar); conditions: Tables 1 and 2
5HT1A receptors [1] = target: T1, 5HT1A receptors (Rattus norvegicus, UniProt P19327); assay: Body temperature / hypothermia, agonist (alone) and antagonist (vs 8-OH-DPAT); type: in vivo, rat (male Wistar); set-up: from tissue; host or cells: whole living male Wistar rats (endogenous receptor)
T1 sequence (P19327 1-422): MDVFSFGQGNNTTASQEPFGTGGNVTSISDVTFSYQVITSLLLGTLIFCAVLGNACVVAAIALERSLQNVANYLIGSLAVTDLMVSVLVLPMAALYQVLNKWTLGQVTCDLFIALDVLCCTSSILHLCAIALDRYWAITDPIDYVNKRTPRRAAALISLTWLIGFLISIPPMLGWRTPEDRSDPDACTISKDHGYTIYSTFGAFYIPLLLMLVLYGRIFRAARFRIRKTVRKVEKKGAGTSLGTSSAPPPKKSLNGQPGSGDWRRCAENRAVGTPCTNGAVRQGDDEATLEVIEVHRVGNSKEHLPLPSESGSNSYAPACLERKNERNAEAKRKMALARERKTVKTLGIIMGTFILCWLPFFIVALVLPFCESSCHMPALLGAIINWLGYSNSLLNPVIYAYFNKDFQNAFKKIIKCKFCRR
Experimental: (§1) The tests were carried out using male Wistar rats weighing 200 to 220 g having free access to their food and to their drinking water in standard cages.
(§2) The animals are isolated individually for the tests for hypothermia, corticosterone secretion and flat body posture, or combined in groups of three for the tailflick test.
(§3) The compounds to be studied were administered by the subcutaneous route (s.c.) 60 minutes before the beginning of the test, that is to say 30 minutes before the solvent (agonist responses) or the 8-OH-DPAT (antagonist responses).
(§4) In all of the tests the solvent is used in parallel as a control. The animals were left to rest in their cage during the period between the injections and the evaluation. For the agonist studies, the solvent was administered at 1 ml/kg s.c. 30 minutes before the beginning of the test. For the antagonist studies, doses of 8-OH-DPAT that induce sub-maximal responses were chosen, that is doses of 0.63, 0.16, 0.16 and 0.16 mg/kg s.c. for, respectively, the tail flick test, flat body posture test, corticosterone secretion test and hypothermia test.
The rats are immobilised and a lubricated digital thermometer (Termistroprobe of Testotherm, Basle, Switzerland) is inserted into the rectum to a depth of 5 cm. 30 seconds after insertion, the temperature is read on a digital scale. The percentage inhibition is calculated using the formula given above.
(§5) In general, after variance analysis, the results are subjected to the Dunett test. The results are taken as significant if p <0.05.
(§6) The doses of the compounds tested are all expressed in base terms. Unless specified otherwise, all of the compounds were dissolved in sterile water (to which if necessary a few drops of lactic acid were added) and administered at a volume of 1 ml/kg s.c.

5HT1A receptors [2] = target: T1, 5HT1A receptors; assay: Corticosterone secretion (CS), agonist (alone) and antagonist (vs 8-OH-DPAT); type: in vivo, rat (male Wistar); set-up: from tissue; host or cells: whole living male Wistar rats (endogenous receptor)
Experimental: as §1, §2, §3, §4
(§7) The same animals were used to evaluate the influence of the compounds studied on FBP and on the determination of the plasma concentration of CS. All of the tests were carried out in the morning between 10.30 and 12.300 that is to say when the circadian levels of CS are lowest.
(§8) The presence of FBP is defined by a characteristic posture of the animal. That posture is in the ventral decubitus position with the posterior limbs clearly extended. 5 minutes after the observation of FBP, the animals are decapitated and the blood from the trunk is collected in cooled tubes containing 50 μl of a 10% EDTA solution. After centrifugation at 4000 revs/min, the plasma is removed and stored at -30° C. until determination.
The CS was determined by a radio-competitive determination for a plasma protein that binds the CS: transcortine. The latter is obtained from a monkey serum. The separation of the CS-transcortine complexes from the free CS was carried out by means of a solution of dextran and active carbon. The detection limit was 50 pg/tube. The intra- and inter-experiment variations in determination were 5 and 15% respectively [cf Rivet J. M. et al, Eur. J. Pharmacol., 183,634-635 (1990)].
The CS base rates in the plasma never being zero, the following formula was used to calculated the percentage inhibition of plasma CS induced by 8-OH-DPAT: [formula]
as §5, §6

5HT1A receptors [3] = target: T1, 5HT1A receptors; assay: Flat body posture (FBP), agonist (alone) and antagonist (vs 8-OH-DPAT); type: in vivo, rat (male Wistar); set-up: from tissue; host or cells: whole living male Wistar rats (endogenous receptor)
Experimental: as §1, §2, §3, §4, §7
25 minutes after the treatment (that is to say 5 minutes before decapitation) the animals are observed in their cages and the presence or absence of FBP is noted.
as §8, §5
For the dose-response for the induction and inhibition of FBP, the ED50 values (doses at which 50% of the animals show a response) were calculated by the Litchfield and Wilcoxon method.
as §6

5HT1A receptors [4] = target: T1, 5HT1A receptors; assay: Drug discrimination (DD) 8-OH-DPAT; type: in vivo, rat (male Wistar); set-up: from tissue; host or cells: whole living male Wistar rats (endogenous receptor); conditions: rat, sc
Experimental: as §1
Male rats are maintained at 85% of their normal body weight by means of food restriction. In soundproofed chambers the animals are trained to press a pedal to obtain food according to an FR10 procedure (Fixed Ratio 10; the food is supplied to the rat when it has pressed the lever 10 times).
Daily sessions of 15 minutes are preceded by an injection of solvent or of the training drug (0.31 mg/kg of 8-OH-DPAT, j.p.). The animal receives a pellet of food after pressing 10 times on the "solvent" or "drug" pedal according to the compound administered before the session.
After the learning period the animals are tested twice a week (Wednesday and Friday). On the other three days training sessions are carried out.
On the training days the rats are given either solvent or 8-OH-DPAT 15 minutes before being tested.
On the test days the rats receive the chemical substance 60 minutes before the session.
The capacity of the chemical substance administered to induce a response (pressing on the "solvent" or "drug" (8-OH-DPAT ) lever ) is recorded.
7 animals chosen at random are used for each substance and for each dose. During the test period, the lever on which the rat first presses 10 times is determined as the lever chosen--a food pellet is then delivered. That selected lever will be reinforced by the delivery of food up to the end of the test session. The percentage of animals selecting the "drug" lever at a particular dose is calculated. In addition, the total number of responses carried out on the two levers is expressed as a percentage of the number of responses carried out on the "solvent" lever obtained on the occasion of a preceding training session.
as §6

5HT1A receptors [5] = target: T1, 5HT1A receptors; assay: Spontaneous tail flick (STF) test, agonist (alone) and antagonist (vs 8-OH-DPAT); type: in vivo, rat (male Wistar); set-up: from tissue; host or cells: whole living male Wistar rats (endogenous receptor)
Experimental: as §1, §2, §3, §4
The tail flicks were determined on the animals in horizontal opaque plastics cylinders with the tail of the animals hanging freely on the edge of the laboratory work bench. After allowing 5 minutes for adaptation, the number of movements made in 5 minutes was recorded. An STF is defined as being an elevation of the tail to a level higher than that of the axis of the body [Millan M. J. et al., J. Pharmacol. Exp. Ther., 256, 973-982 (1990)].
as §5, §6

[6] = agonist test, compound alone s.c., minimum effective dose vs control

SMILES: O=C1CC2(CCCC2)CC(=O)N1CCCCN1CCN(c2ncccn2)CC1 [buspirone, reference compound]
- behaviour at 5HT1A receptor (agonist/antagonist, in words) (5HT1A receptor): agonist behaviour
- H[…] alone (5HT1A receptors [1]; [6]): 2.5 mg/kg
- ED50 (5HT1A receptors [1]; rat, sc, read-out: HYPOTHERMIA ID50 (95% CL) + DPAT): > 10 mg/kg
- % MPA (% maximum possible antagonism), HYPOTHERMIA (5HT1A receptors [1]; vs 8-OH-DPAT 0.16 mg/kg s.c.): 0%
- CS secretion MED alone (5HT1A receptors [2]; [6]): 2.5 mg/kg
- ED50 (5HT1A receptors [2]; rat, sc, read-out: CS secretion ID50 (95% CL) + DPAT): > 10 mg/kg
- % MPA (% maximum possible antagonism), CS secretion (5HT1A receptors [2]; vs 8-OH-DPAT 0.16 mg/kg s.c.): 0%
- ED50 (5HT1A receptors [3]; rat, sc, read-out: FBP ID50 (95% CL) + DPAT): > 10 mg/kg
- % MPA (% maximum possible antagonism), FBP (5HT1A receptors [3]; vs 8-OH-DPAT 0.16 mg/kg s.c.): 0%
- ED50 (5HT1A receptors [4]; read-out: DD 8-OH-DPAT ED50 (95% CL) alone): 1.35 mg/kg
- ED50 (5HT1A receptors [4]; read-out: DD 8-OH-DPAT ID50 (95% CL) + DPAT): > 2.5 mg/kg
- STFs MED alone (5HT1A receptors [5]; [6]): > 40.0 mg/kg
- % MPA (% maximum possible antagonism), STFs (5HT1A receptors [5]; vs 8-OH-DPAT 0.63 mg/kg s.c.): 86%
